Results on 4 compounds are retold here after paper PMC3532936 (Journal of biomolecular screening, 2011).

In one assay the target is CE protein (YF or DEN). Conditions: read-out: Ki for the displacement of GTP–BODIPY; competition assay; cited from earlier work.
Assay [1] has as its target T1, YF CE (Yellow fever virus, UniProt P03314). It is filed as binding, yellow fever virus (strain 17D).
The target of assay [2] is T1, YF CE.
The next assay concerns the target T2, DEN CE (Dengue virus type 2, UniProt P29990).
T2 sequence (P29990 2493-2755 limits assumed): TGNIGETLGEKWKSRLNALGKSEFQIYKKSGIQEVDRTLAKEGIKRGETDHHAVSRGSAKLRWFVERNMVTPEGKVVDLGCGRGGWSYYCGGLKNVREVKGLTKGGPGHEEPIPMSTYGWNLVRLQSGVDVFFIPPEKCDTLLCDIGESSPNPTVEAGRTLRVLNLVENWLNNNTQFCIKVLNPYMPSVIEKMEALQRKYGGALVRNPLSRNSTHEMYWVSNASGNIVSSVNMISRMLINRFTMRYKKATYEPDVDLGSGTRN
It is filed as biochemical.

The target of a further assay is T3, DEN2 CE (Dengue virus type 2, UniProt P29990).
T3 sequence (P29990 2493-2755 limits assumed): T2 sequence (P29990 2493-2755 limits assumed)
It is filed as binding, dengue virus 2 (strain 16681).

Several values for one entry are separate records, joined by “and”; a condition that tells them apart may be missing. Identical values can stand only once. Like-named read-outs stand apart in the source and are kept apart here.

T1 sequence (P03314 2507-2771 limits assumed): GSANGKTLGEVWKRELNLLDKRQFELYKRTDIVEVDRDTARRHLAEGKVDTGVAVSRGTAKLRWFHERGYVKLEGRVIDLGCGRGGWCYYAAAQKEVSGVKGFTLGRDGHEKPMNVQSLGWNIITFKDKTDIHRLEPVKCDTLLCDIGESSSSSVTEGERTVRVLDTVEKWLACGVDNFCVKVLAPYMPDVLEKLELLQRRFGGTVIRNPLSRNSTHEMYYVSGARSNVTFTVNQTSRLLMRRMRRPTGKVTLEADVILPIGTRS

On to `Nc1nc2c(ncn2[C@@H]2O[C@H](COP(=O)(O)OP(=O)(O)OP(=O)(O)O)[C@@H](O)[C@H]2O)c(=O)[nH]1` [GTP, guanosine triphosphate, reference compound], for which the Ki on CE protein (YF or DEN) was 0.04 µM. Further, at YF CE [1], the “average mP value of inhibition” value is 42.4 ± 5.19 mP and 81.8 ± 6.09 mP.
The IC50 is the concentration that gives 50% inhibition. On to `Cc1ccc(C)n1C(Cc1c[nH]c2ccccc12)C(=O)O` (stereo not drawn) [BAS 01211690], for which the Ki on YF CE [2] (read-out: apparent Ki, FP, YF) amounted to 5.8 ± 0.5 µM; at YF CE [2] (read-out: apparent Ki, TF, YF) it was 5.8 ± 1.7 µM; on DEN2 CE (read-out: apparent Ki, FP, DEN) it was 10.1 ± 1.3 µM; at DEN2 CE (read-out: apparent Ki, TF, DEN) it was 9.1 ± 2.5 µM. Further, the “inhibition of guanylation (in words)” value on DEN CE is “weaker inhibition of guanylation”. The IC50 on DEN CE (read-out: Guanylation IC50 DEN) worked out at 78.9 ± 37.8 µM. For the same compound, the “Percent Inhibition HTS” value on YF CE [1] came to 23%.
For `Nc1ncnc2c1ncn2[C@@H]1O[C@H](COP(=O)(O)OP(=O)(O)OP(=O)(O)O)[C@@H](O)[C@H]1O` [adenosine triphosphate (ATP), adenosine triphosphate], the Ki at CE protein (YF or DEN) was 350 µM.
Take `COC(=O)[n+]1ccc(N2CCOCC2)cc1` [BAS01531218]: the Ki on YF CE [2] (read-out: apparent Ki, FP, YF) was 4.9 ± 1 µM; at YF CE [2] (read-out: apparent Ki, TF, YF), 6.2 ± 1.4 µM; on DEN2 CE (read-out: apparent Ki, FP, DEN), 4.8 ± 1.5 µM; at DEN2 CE (read-out: apparent Ki, TF, DEN) it was 2.6 ± 0.5 µM. The “Percent Inhibition HTS” value on YF CE [1] is recorded as 12%.
